Experimental data reported in patent US20210277015A1, “OGA INHIBITOR COMPOUNDS” (Janssen Pharmaceutica NV, priority 2018, published 2021).

Experiments:
[1] = biological target: T1, recombinant human Meningioma Expressed Antigen 5 (MGEA5), also referred to as O-GlcNAcase (OGA) (Homo sapiens, UniProt O60502); assay: OGA biochemical assay (inhibition of FM-GlcNAc hydrolysis, fluorescence); details: FM-GlcNAc substrate; for IC50: 6 h at room temperature, read-out: Enzymatic hOGA, pIC50 (converted); for Emax / Enzymatic Emax (%): maximal effect; for Emax: read-out: Enzymatic Emax (%)
T1 construct: Full length OGA enzyme was purchased at OriGene (cat #TP322411); purchased OriGene TP322411
T1 sequence (O60502 1-916): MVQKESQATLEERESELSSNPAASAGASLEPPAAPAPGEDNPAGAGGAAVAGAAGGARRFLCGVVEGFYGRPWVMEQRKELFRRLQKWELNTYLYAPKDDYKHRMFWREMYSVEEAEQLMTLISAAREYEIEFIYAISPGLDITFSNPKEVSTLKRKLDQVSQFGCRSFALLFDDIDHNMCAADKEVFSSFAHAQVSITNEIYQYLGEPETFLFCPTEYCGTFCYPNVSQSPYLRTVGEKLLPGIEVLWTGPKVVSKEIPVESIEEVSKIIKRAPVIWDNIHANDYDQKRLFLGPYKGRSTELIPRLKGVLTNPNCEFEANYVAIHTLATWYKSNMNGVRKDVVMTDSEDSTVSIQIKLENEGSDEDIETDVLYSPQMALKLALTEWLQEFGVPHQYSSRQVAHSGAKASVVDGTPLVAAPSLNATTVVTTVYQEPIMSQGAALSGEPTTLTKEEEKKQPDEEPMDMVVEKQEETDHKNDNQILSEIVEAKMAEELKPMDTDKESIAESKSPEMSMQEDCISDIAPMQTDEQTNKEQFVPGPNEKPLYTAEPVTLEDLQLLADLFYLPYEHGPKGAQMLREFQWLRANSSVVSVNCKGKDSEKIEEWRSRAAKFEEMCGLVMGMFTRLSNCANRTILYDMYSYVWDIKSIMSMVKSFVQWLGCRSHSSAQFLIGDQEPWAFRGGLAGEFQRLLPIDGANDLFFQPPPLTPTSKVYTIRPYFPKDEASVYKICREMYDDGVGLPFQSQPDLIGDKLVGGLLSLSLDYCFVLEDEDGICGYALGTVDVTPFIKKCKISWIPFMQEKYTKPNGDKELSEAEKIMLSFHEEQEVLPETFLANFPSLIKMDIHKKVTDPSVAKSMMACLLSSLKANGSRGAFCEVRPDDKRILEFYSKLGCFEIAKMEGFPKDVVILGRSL
From the text: The assay is based on the inhibition of the hydrolysis of fluorescein mono-β-D-N-Acetyl-Glucosamine (FM-GlcNAc) (Mariappa et al. 2015, Biochem J 470:255) by the recombinant human Meningioma Expressed Antigen 5 (MGEA5), also referred to as O-GlcNAcase (OGA). The hydrolysis FM-GlcNAc (Marker Gene technologies, cat #M1485) results in the formation of β-D-N-glucosamineacetate and fluorescein. The fluorescence of the latter can be measured at excitation wavelength 485 nm and emission wavelength 538 nm. An increase in enzyme activity results in an increase in fluorescence signal. Full length OGA enzyme was purchased at OriGene (cat #TP322411). The enzyme was stored in 25 mM Tris.HCl, pH 7.3, 100 mM glycine, 10% glycerol at −20° C. Thiamet G and GlcNAcStatin were tested as reference compounds (Yuzwa et al. 2008 Nature Chemical Biology 4:483; Yuzwa et al. 2012 Nature Chemical Biology 8:393). The assay was performed in 200 mM Citrate/phosphate buffer supplemented with 0.005% Tween-20. 35.6 g Na2HPO4 2 H2O (Sigma, #C0759) were dissolved in 1 L water to obtain a 200 mM solution. 19.2 g citric acid (Merck, #1.06580) was dissolved in 1 L water to obtain a 100 mM solution. pH of the sodium phosphate solution was adjusted with the citric acid solution to 7.2. The buffer to stop the reaction consists of a 500 mM Carbonate buffer, pH 11.0. 734 mg FM-GlcNAc were dissolved in 5.48 mL DMSO to obtain a 250 mM solution and was stored at −20° C. OGA was used at a 2 nM concentration and FM-GlcNAc at a 100 uM final concentration. Dilutions were prepared in assay buffer.
50 nl of a compound dissolved in DMSO was dispensed on Black Proxiplate™ 384 Plus Assay plates (Perkin Elmer, #6008269) and 3 μl fl-OGA enzyme mix added subsequently. Plates were pre-incubated for 60 min at room temperature and then 2 μl FM-GlcNAc substrate mix added. […] Plates were briefly centrifuged for 1 min at 1000 rpm and incubate at room temperature for 6 h. To stop the reaction 5 μl STOP buffer were added and plates centrifuge again 1 min at 1000 rpm. Fluorescence was quantified in the Thermo Scientific Fluoroskan Ascent or the PerkinElmer EnVision with excitation wavelength 485 nm and emission wavelength 538 nm.
For analysis a best-fit curve is fitted by a minimum sum of squares method. From this an IC50 value and Hill coefficient was obtained. High control (no inhibitor) and low control (saturating concentrations of standard inhibitor) were used to define the minimum and maximum values.

OGA = biological target: T2, OGA (Homo sapiens, UniProt O60502); assay: OGA cellular assay (ICC detection of O-GlcNAcylated proteins in HEK293 cells inducible for P301L mutant human Tau); format: cell-based; details: for Emax: HEK293, HEK293 cells inducible for P301L mutant human Tau; for Emax / Cellular Emax (%): maximum defined by Thiamet G at 200 uM; for EC50 / Cellular Emax (%) / Cellular hOGA; pEC50: HEK293 cells inducible for P301L mutant human Tau; for EC50 / Cellular hOGA; pEC50: 6 hours incubation, ICC O-GlcNAcylation; for EC50: read-out: Cellular hOGA, pEC50 (converted)
T2 construct: endogenous in cells; host or cells: HEK293 cells inducible for P301L mutant human Tau (isoform 2N4R)
T2 sequence (O60502 1-916): T1 sequence (O60502 1-916)
Experimental: HEK293 cells inducible for P301L mutant human Tau (isoform 2N4R) were established at Janssen. Thiamet-G was used for both plate validation (high control) and as reference compound (reference EC50 assay validation). OGA inhibition is evaluated through the immunocytochemical (ICC) detection of O-GlcNAcylated proteins by the use of a monoclonal antibody (CTD110.6; Cell Signaling, #9875) detecting O-GlcNAcylated residues as previously described (Dorfmueller et al. 2010 Chemistry & biology, 17:1250). Inhibition of OGA will result in an increase of O-GlcNAcylated protein levels resulting in an increased signal in the experiment. Cell nuclei are stained with Hoechst to give a cell culture quality control and a rough estimate of immediate compounds toxicity, if any. ICC pictures are imaged with a Perkin Elmer Opera Phenix plate microscope and quantified with the provided software Perkin Elmer Harmony 4.1.
Cells were propagated in DMEM high Glucose (Sigma, #D5796) following standard procedures. 2 days before the cell assay cells are split, counted and seeded in Poly-D-Lysine (PDL) coated 96-wells (Greiner, #655946) plate at a cell density of 12,000 cells per cm^2 (4,000 cells per well) in 100 μl of Assay Medium (Low Glucose medium is used to reduce basal levels of GlcNAcylation) (Park et al. 2014 The Journal of biological chemistry 289:13519). At the day of compound test medium from assay plates was removed and replenished with 90 μl of fresh Assay Medium. 10 μl of compounds at a 10 fold final concentration were added to the wells. Plates were centrifuged shortly before incubation in the cell incubator for 6 hours. DMSO concentration was set to 0.2%. Medium is discarded by applying vacuum. For staining of cells medium was removed and cells washed once with 100 μl D-PBS (Sigma, #D8537). From next step onwards unless other stated assay volume was always 50 μl and incubation was performed without agitation and at room temperature. Cells were fixed in 50 μl of a 4% paraformaldehyde (PFA, Alpha aesar, #043368) PBS solution for 15 minutes at room temperature. […] Before analysis samples were washed 2 times manually for 5 minutes in ICC base buffer.
Imaging is performed using Perkin Elmer Phenix Opera using a water 20× objective and recording 9 fields per well. Intensity readout at 488 nm is used as a measure of O-GlcNAcylation level of total proteins in wells. To assess potential toxicity of compounds nuclei were counted using the Hoechst staining. IC50-values are calculated using parametric non-linear regression model fitting. As a maximum inhibition Thiamet G at a 200 uM concentration is present on each plate. In addition, a concentration response of Thiamet G is calculated on each plate.

SMILES	IC50 [1] [nM]	Emax [1] [%]	Emax (OGA) [%]	EC50 (OGA) [nM]	Enzymatic Emax (%) [1] [%]	Cellular Emax (%) (OGA)	Cellular hOGA; pEC50 (OGA)
Cc1cc(O[C@@H]2CCN(C(C)c3nc4c(cc3F)OCCO4)C2)cnc1C (stereo partly shown) [Product 129]	200	91	45	–	–	–	–
Cc1cc(O[C@@H]2CCN(C(C)c3nc4c(cc3F)CCO4)C2)cc(C)n1 (single isomer, unassigned) [Product 18]	158	98	–	–	–	42	–
COc1cc(C[C@@H]2CN([C@H](C)c3ccc4c(n3)OCCO4)C[C@H]2C)cc(C)n1 (stereo in doubt) [Product 122]	–	49	-7	> 1000	–	–	–
COc1cc(C[C@H]2CN(C(C)c3ccc4c(n3)OCCO4)C[C@@H]2C)cc(C)n1 (mixture of isomers) [Product 120]	158	100	36	> 1000	–	–	–
Cc1cc(OC[C@]2(C)CCN([C@H](C)c3ccc4c(n3)OCCO4)C2)cc(C)n1 (single isomer, unassigned) [Product 103]	> 10000	–	–	–	29	−5	<6
CC(c1ccc2c(n1)OCCO2)N1CC[C@@H](Oc2ccc(C#N)nn2)C1 (single isomer, unassigned) [Product 55]	200	–	–	–	94	24	<6
Cc1cc(O[C@@H]2CCN(C(C)c3ccc4c(n3)OCCO4)C2)cc(C)n1 (mixture of isomers) [Product 73]	79.4	99	33	> 1000	–	–	–
COc1cc(C[C@H]2CCN(C(C)c3cc4c(cc3F)OCCO4)C2)cc(C)n1 (single isomer, unassigned) [Product 11]	25.1	–	–	200	102	83	–
COc1cc(C[C@H]2CCN(C(C)c3nc4c(cc3F)OCCO4)C2)cc(C)n1 (stereo partly shown) [Product 16]	20	102	89	126	–	–	–

Other lines, results leading:

IC50 [1] [nM]	Emax [1] [%]	Emax (OGA) [%]	EC50 (OGA) [nM]	Enzymatic Emax (%) [1] [%]	Cellular Emax (%) (OGA)	Cellular hOGA; pEC50 (OGA)	SMILES
5.01	101	72	100	–	–	–	Cc1cc(C[C@@H]2CCN([C@@H](C)c3cc4c(cc3F)OCCO4)C2)cc(C)n1 [Product 45]
631	94	9	> 1000	–	–	–	Cc1cc(CO[C@@H]2CCN(C(C)c3ccc4c(n3)OCCO4)C2)cc(C)n1 (mixture of isomers) [Product 115]
2000	–	–	> 1000	87	−5	–	Cc1cc(OC[C@]2(C)CCN([C@H](C)c3ccc4c(n3)OCCO4)C2)cc(C)n1 (single isomer, unassigned) [Product 100]
126	100	45	–	–	–	–	Cc1cc(C[C@H]2CCN(C(C)c3ccc4c(n3)OCCO4)C2)cc(C(F)(F)F)n1 (stereo partly shown) [Product 5]
200	–	–	–	99	15	<6	Cc1cc(C[C@@H]2CCN(C(C)c3cnc4c(c3)OCCO4)C2)cc(C)n1 (single isomer, unassigned) [Product 36]
158	89	48	501	–	–	–	Cc1cc(O[C@@H]2CCN(C(C)c3nc4c(cc3F)OCCO4)C2)ccn1 (stereo partly shown) [Product 125]
> 10000	40	-3	> 1000	–	–	–	COc1cc(C[C@@H]2CN([C@@H](C)c3ccc4c(n3)OCCO4)C[C@H]2C)cc(C)n1 (stereo in doubt) [Product 124]
15.8	101	72	126	–	–	–	Cc1cc(C[C@H]2CCN([C@@H](C)c3cc4c(cc3F)OCCO4)C2)cc(C)n1 [Product 32]
1.58	–	–	18.6	97	94	–	Cc1cc(O[C@@H]2CCN(C(C)c3nc4c(cc3F)CCO4)C2)cc(C)n1 (single isomer, unassigned) [Product 19]
200	96	26	> 1000	–	–	–	CC(c1nc2c(cc1F)OCCO2)N1CC[C@@H](Oc2ccc(C(F)(F)F)nc2)C1 (stereo partly shown) [Product 127]
63.1	93	43	> 1000	–	–	–	CC(c1nc2c(cc1F)OCCO2)N1CC[C@@H](Oc2ccc(C#N)nn2)C1 (stereo partly shown) [Product 53]
